Laboratory results as given in patent EP3797781A1, “USE OF EC-7072 AND SYNERGIC COMPOSITIONS THEREOF IN TREATMENT OF CHRONIC LYMPHOCYTIC LEUKEMIA” (priority 2019, dated 2021).

Test system: BCR signaling pathway
Test: Phosphoflow of BCR signaling nodes in isolated leukemia cells
Format: cell-based, human
Method: Protein phosphorylation levels were evaluated by phosphoflow. Briefly, isolated leukemia cells from patients with CLL were treated with 200 nM EC-7072 or DMSO for 8 or 12 hours. In some experiments, BCR signaling was activated with goat F(ab')2 anti-IgM antibody (10 µg/mL; SouthernBiotech) for 45 minutes. Right afterwards, cells were fixed with 1.8% paraformaldehyde for 10 minutes at RT and permeabilized with 90% ice-cold methanol for 25 minutes at 4 °C. Finally, cells were incubated with specific phospho-antibodies (p-SYK, p-BTK, p-ERK1/2 and p-H2AX from Biolegend, and p-PLCγ2, p-AKT, p-p65 NF-κB and p-STAT3 from BD Bioscience) for 30 minutes at RT and mean fluorescence intensity (MFI) was analyzed by flow cytometry.
The inhibition of the tonic BCR pathway by EC-7072 was evaluated by: • (i) incubating PBMCs from patients with CLL, following treatment with 200 nM EC-7072, for 8 hours. Surface expression of CD79A (Figure 7A), CD79B (Figure 7B) and IgM (Figure 7C) in leukemia cells (n = 5 - 6) was assessed by flow cytometry and the MFI was normalized to the control (DMSO) condition; • (ii) incubating isolated leukemia cells from patients with CLL (n = 10), following treatment with EC-7072 (200 nM), for 8 hours. Phosphorylation levels of p-SYK (Figure 7D), p-BTK (Figure 7E) and p-PLCy2 (Figure 7F) proteins and p-ERK1/2 (Figure 7G), p-AKT (Figure 7H), p-p65 NPκB (Figure 7I) and p-STAT3 (Figure 7J) were evaluated by phosphoflow and the MFI was normalized to the control (DMSO) from each individual patient; • (iii) incubating PBMCs from patients with CLL (n = 8), following treatment with EC-7072 (200 nM), for 8 hours. Viability was determined by DiOC6(3)/PI staining and normalized to the control (DMSO) condition for each individual patient to obtain the mean percentage of viable [DiOC6(3)^+] cells (Figure 7K); • (iv) incubating isolated CLL cells (n = 4) stimulated with CD40L (100 ng/mL) or IL-6 (40 ng/mL) for 15 minutes and detecting respective phosphorylation levels of p65 NF-κB (Figure 7L) and STAT3 (Figure 7M) by phosphoflow to obtain the mean MFI normalized to the control (DMSO) condition for each individual patient; • (v) incubating isolated leukemia cells from 3 patients with CLL, following treatment with 200 nM EC-7072, for 3, 8 and 12 hours. […]
The partial abrogation of EC-7072-induced cell death of primary CLL cells by activation of the BCR was evaluated by: • (i) incubating PBMCs from patients with CLL (n = 15), following treatment with EC-7072 (200 nM) in combination with α-IgM (10 µg/mL), for 24 hours. […]

Compound: CO[C@@H]([C@@H]1Cc2cc3cc(O[C@H]4C[C@@H](O[C@H]5C[C@@H](O)[C@H](O)[C@@H](C)O5)[C@H](O)[C@@H](C)O4)c(C)c(O)c3c(O)c2C(=O)[C@H]1O[C@H]1C[C@@H](O[C@H]2C[C@@H](O[C@H]3C[C@](C)(O)[C@H](O)[C@@H](C)O3)[C@@H](O)[C@@H](C)O2)[C@H](O)[C@@H](C)O1)[C@@H](O)C(C)=O [EC-7072, mithramycin SK]
- amounts of p-AKT (200 nM, 8 hours, n = 10): No marked changes
- levels of phosphorylated (p)-SYK, p-BTK and p-PLCγ2 (200 nM, 8 hours, n = 10): significant reduction
- phosphorylation levels of ERK1/2, p65 NF-κB and STAT3 (200 nM, 8 hours, n = 10): significant downregulation
- phosphorylation of ERK1/2, AKT, p65 NF-κB and STAT3 ensued by anti-IgM (EC-7072 200 nM 8 hours, then α-IgM (10 µg/mL) 15 minutes): not significantly reverted
